The values that follow come from ChEMBL document CHEMBL1145308 (Bioorg Med Chem Lett, 2006).

Each structure is given as a SMILES string.

For orientation: pKa means the pH at which an ionisable group is half protonated. Higher therefore signals a weaker acid or stronger base. A word on the EC50: it is the concentration giving half of the maximal effect. Lower therefore signals a more potent agent. One may read the IC50 as the concentration at which inhibition is half-maximal. A high value points to weaker potency in that assay. Usually microsomal CLint stands for the capacity of the preparation to metabolise the compound, expressed as a volume cleared per time. The low end stands for slow turnover, the high end for rapid turnover. For orientation: half-life means the time needed for the level to fall by half in the phase considered. As a reminder, the bioavailability is dose-corrected exposure relative to a reference, in per cent. A low value points to poor availability. Usually clearance stands for the volume of plasma or blood freed of the substance per unit of time. A low value points to a low capacity for elimination.

A short description of data set [1]: Dissociation constant, pKa of the compound. It counts as physicochemical.
Data set [2] has as its target T1, Sodium- and chloride-dependent glycine transporter 1 (Homo sapiens, UniProt P48067).
T1 sequence (P48067 whole entry): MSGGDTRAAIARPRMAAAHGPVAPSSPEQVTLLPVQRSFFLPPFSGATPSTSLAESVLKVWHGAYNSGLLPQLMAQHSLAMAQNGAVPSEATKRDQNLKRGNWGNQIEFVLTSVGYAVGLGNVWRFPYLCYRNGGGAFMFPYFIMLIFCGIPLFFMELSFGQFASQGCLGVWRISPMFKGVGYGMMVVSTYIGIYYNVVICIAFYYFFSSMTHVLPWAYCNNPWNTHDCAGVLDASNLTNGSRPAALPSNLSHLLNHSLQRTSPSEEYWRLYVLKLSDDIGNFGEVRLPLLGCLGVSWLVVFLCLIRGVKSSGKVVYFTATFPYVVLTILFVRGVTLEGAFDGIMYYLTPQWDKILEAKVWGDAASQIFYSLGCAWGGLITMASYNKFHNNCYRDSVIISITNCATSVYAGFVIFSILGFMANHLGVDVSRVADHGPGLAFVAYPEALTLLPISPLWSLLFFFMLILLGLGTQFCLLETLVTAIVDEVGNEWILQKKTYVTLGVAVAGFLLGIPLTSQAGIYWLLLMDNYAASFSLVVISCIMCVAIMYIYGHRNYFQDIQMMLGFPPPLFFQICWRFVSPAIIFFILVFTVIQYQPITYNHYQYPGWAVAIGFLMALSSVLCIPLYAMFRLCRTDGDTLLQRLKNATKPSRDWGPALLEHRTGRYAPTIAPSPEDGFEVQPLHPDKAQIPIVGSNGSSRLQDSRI
In words: (§1) Inhibition of [3H]glycine uptake at GlyT1.

For data set [3], the target named is Voltage-gated inwardly rectifying potassium channel KCNH2 (Homo sapiens, UniProt Q12809).
Description: Inhibition of hERG potassium channel expressed in CHO cells by whole cell patch clamp method
A short description of data set [4]: in vitro. The conditions noted are these: mouse, microsomes, CL.
Description: Intrinsic clearance in mouse microsome
A short description of data set [5]: in vitro. The conditions noted are these: mouse, microsomes, Max Achievable Bioavailability.
Description: Maximum achievable bioavailability in mouse microsome
Data set [6] in a line: in vitro. The conditions noted are these: human, microsomes, CL.
Description: Intrinsic clearance in human microsome
Data set [7] is described as follows: in vitro. Particulars: human, microsomes, Max Achievable Bioavailability.
Description: Maximum achievable bioavailability in human microsome
Data set [8] can be described thus: Half life in mouse. Type of data set: ADME, organism-based. The conditions noted are these: in vivo.
Data set [9] is described as follows: Volume of distribution in mouse. Type of data set: ADME, organism-based. Particulars: in vivo, read-out: Vss.
Data set [10] is described as follows: Ratio of drug level in brain against plasma in mouse. Type of data set: ADME, organism-based. Particulars: read-out: BPR.
Data set [11] in a line: Oral bioavailability in mouse. It counts as ADME, organism-based. The conditions noted are these: in vivo.
Data set [12] addresses T2, Sodium- and chloride-dependent glycine transporter 2 (Homo sapiens, UniProt Q9Y345).
T2 sequence (Q9Y345 whole entry): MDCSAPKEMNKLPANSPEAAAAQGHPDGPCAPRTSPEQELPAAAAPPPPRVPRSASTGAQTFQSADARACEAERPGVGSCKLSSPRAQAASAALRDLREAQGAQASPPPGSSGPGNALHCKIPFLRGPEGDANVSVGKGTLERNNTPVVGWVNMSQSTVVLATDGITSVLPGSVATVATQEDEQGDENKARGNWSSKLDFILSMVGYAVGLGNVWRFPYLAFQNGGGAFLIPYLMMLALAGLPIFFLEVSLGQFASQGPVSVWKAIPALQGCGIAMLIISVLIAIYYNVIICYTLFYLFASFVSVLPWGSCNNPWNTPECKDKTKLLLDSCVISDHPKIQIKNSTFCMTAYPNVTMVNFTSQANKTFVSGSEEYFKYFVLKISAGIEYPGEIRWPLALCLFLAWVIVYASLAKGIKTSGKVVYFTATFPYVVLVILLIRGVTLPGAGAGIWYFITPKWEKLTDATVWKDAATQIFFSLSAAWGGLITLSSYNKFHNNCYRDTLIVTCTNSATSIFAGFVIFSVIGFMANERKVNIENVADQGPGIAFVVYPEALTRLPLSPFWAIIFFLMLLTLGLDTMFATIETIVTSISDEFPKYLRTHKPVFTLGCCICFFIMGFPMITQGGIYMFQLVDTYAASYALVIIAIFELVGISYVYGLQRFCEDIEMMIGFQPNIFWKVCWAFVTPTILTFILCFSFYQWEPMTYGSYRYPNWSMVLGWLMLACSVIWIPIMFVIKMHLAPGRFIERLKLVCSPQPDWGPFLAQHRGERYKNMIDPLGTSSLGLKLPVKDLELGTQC
In words: (§2) Inhibition of [3H]glycine uptake at GlyT2.

Data set [13] can be described thus: Clearance in mouse. It counts as ADME, organism-based. Particulars: in vivo.
Data set [14] has as its target T3, Sodium- and chloride-dependent glycine transporter 1 (Homo sapiens) (UniProt P48067).
T3 sequence (whole entry): T1 sequence (P48067 whole entry)
Described as §1.

The target of data set [15] is T4, Sodium- and chloride-dependent glycine transporter 2 (Homo sapiens) (UniProt Q9Y345).
T4 sequence (whole entry): T2 sequence (Q9Y345 whole entry)
The description is as §2.

Chain of Voltage-gated inwardly rectifying potassium channel KCNH2 (Q12809 whole entry): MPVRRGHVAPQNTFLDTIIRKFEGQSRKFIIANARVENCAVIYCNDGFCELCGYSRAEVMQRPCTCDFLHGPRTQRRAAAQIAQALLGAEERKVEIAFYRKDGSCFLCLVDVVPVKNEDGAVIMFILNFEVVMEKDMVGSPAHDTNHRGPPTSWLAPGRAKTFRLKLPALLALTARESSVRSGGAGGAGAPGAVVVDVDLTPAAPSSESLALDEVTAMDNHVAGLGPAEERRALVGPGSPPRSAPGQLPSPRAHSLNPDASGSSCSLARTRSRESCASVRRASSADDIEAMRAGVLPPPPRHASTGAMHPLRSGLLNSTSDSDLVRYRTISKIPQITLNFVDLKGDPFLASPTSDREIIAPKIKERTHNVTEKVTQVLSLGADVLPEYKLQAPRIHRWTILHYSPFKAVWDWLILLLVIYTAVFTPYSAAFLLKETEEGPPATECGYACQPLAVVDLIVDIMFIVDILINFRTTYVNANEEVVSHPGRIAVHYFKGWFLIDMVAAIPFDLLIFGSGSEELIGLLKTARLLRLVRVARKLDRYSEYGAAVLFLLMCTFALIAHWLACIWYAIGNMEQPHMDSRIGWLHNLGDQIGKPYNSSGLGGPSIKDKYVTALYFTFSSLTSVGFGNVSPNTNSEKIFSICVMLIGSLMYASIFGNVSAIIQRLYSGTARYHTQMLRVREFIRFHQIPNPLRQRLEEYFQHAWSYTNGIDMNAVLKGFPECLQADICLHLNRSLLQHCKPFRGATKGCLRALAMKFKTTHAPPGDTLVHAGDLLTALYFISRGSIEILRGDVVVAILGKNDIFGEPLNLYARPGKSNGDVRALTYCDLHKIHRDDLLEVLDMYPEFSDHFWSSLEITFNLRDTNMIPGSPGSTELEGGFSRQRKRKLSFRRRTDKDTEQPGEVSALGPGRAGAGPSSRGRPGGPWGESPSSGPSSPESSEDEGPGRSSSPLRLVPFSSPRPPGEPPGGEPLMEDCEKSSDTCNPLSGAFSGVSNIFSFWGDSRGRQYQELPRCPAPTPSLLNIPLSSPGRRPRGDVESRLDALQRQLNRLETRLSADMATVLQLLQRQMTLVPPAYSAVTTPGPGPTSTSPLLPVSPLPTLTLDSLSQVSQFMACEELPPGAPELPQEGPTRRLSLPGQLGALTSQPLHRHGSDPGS

Consider `O=C1NCC(c2ccccc2)C12CCN(C1(c3ccccc3)CCCOC1)CC2` (stereo not drawn), for which the pKa in [1] was determined as 7.1. The midpoint of the response in data set [2], the EC50, lay at 1420 nM. The molecule further returned a concentration for half-maximal inhibition (IC50) in [3] greater than 11000 nM.
Take `CCCC1CNC(=O)C12CCN(C1(c3ccc(F)cc3)CCCCC1)CC2` (racemic): the intrinsic clearance (microsomal CLint) in “in vitro [4]” was 24 µL/min/mg; in “in vitro [6]”, 14 µL/min/mg. The figures for the Fh in “in vitro [5]” and in “in vitro [7]” were 57% and 53%, respectively.
`O=C1NCC(c2ccc(F)cc2)C12CCN(C1(c3ccc(F)cc3)CCCCC1)CC2` (stereo in doubt) had a half-life in data set [8] of 2.8 h. Also, in data set [9], the Vd was determined as 7.6 L/kg. In data set [1], this molecule registered a pKa of 8.75. For the same molecule, the Kp in data set [10] amounted to 3. In [11], this molecule returned a bioavailability of 60%. For the same molecule, the Fh in the data set “in vitro [5]” came out at 98%; in “in vitro [7]” it was 84%. For the same molecule, the EC50 in data set [12] was greater than 30000 nM. In addition, the clearance in data set [13] is 35 mL/min/kg.
`O=C1NCC(c2ccccc2)C12CCN(C1(c3ccccc3)CCOCC1)CC2` (stereo not drawn): the pKa in data set [1] came out at 7.71.
Regarding `Cl.O=C1NCC(c2ccc(F)cc2)C12CCN(C1(c3cccs3)CCCCC1)CC2` (racemic), the microsomal CLint in the data set “in vitro [4]” was determined as 80 µL/min/mg; in “in vitro [6]”, 9 µL/min/mg. Moreover, the Fh stood at 28% in the data set “in vitro [5]” and 64% in the data set “in vitro [7]”.
Regarding `O=C1NCN(c2ccccc2)C12CCN(C1(c3ccccc3)CCCCC1)CC2`, the figures for the microsomal CLint in “in vitro [4]” and in the data set “in vitro [6]” were 470 µL/min/mg and 82 µL/min/mg, respectively. For the same molecule, the values for the Fh in “in vitro [5]” and in the data set “in vitro [7]” were 6% and 16%, respectively. Further, in data set [12], the 50% effective concentration (EC50) was greater than 30000 nM.
With `O=C1NCC(c2ccc(F)cc2)C12CCN(C1(c3ccc(F)cc3)CCCCCC1)CC2` (stereo not drawn), the Activity in [14] was 245 nM; in [15], greater than 30 µM.
On to `Cl.O=C1NCC(c2ccc(F)cc2)C12CCN(C1(c3ccsc3)CCCCC1)CC2` (racemic), for which the intrinsic clearance (microsomal CLint) is 39 µL/min/mg in the data set “in vitro [4]” and 4 µL/min/mg in the data set “in vitro [6]”. Moreover, the Fh stood at 45% in “in vitro [5]” and 78% in the data set “in vitro [7]”. In addition, in data set [2], it took 99 nM to reach a half-maximal effect (EC50).
